Data set [1] in a line: Foaming capability of individual surfactant components admixed with water and agitated. The format is physicochemical. To be noted: for Foaming ability: numerical score, 1 representing an excellent foamer and 5 a poor foamer. As for the experimental part:
The foaming ability was determined by a numerical score, 1 representing an excellent foamer and 5 representing a poor foamer

In data set [2] the test system is EpiOral ORL-200 model. Put plainly: EpiOral in Vitro Irritation Test Method (EpiOral ORL-200 model). To be noted: for ET-50 Time: time at which 50% of cells are viable, test terminated at 240 minutes.
Experimental: (§1) To evaluate the potential irritancy of the dentifrice formulae, surfactant components were diluted in water and tested using an EpiOral in Vitro Irritation Test Method, in particular the EpiOral ORL-200 model, a known model for testing irritant potential of dentifrice components.
(§2) In the EpiOral test, the dentifrice components were tested to determine the parameter “ET-50” which represents the time at which 50% of cells are viable: the higher the ET-50 time then the less irritating the material.
(§3) Dentifrice compositions incorporating different surfactant systems were also subjected to the EpiOral test.
The test system of data set [3] is EpiOral ORL-200 model.
Experimental: as §1, §2, §3

Where two headings read alike, the source gives them in different places.

The record followed here is patent US8597618B1, “Dentifrice composition” (Toms's of Maine, Inc., priority 2012, dated 2013).

In the case of `CCCCCCCCCCCCOS(=O)(=O)[O-].[Na+]` [Sodium lauryl sulfate, sodium lauryl sulfate], the Foaming ability in data set [1] was 1. In addition, the “ET-50 Time” value in the data set on EpiOral ORL-200 model [2] (surfactant component 1 wt % in water) came to 115.4 min; in the data set with EpiOral ORL-200 model [2] (surfactant component 2 wt % in water), 48.3 min. The potential irritancy result in the data set with EpiOral ORL-200 model [2] (surfactant components in water at different concentrations, in words) is “high”.

For the molecule lauryl glucoside, the “foaming ability as compared to sodium lauryl sulfate” value in data set [1] (individual surfactant components, in words) is recorded as “significantly poorer”. The same molecule came in with a Foaming ability in data set [1] of 3. In addition, in the data set with EpiOral ORL-200 model [3], the “ET-50 Time” value was >240 min and the potential irritancy result is on record as “very low”.
